Test results: ChEMBL document CHEMBL1126920, “Design and synthesis of an orally active macrocyclic neutral endopeptidase 24.11 inhibitor” (J Med Chem, 1993)

Molecular target: T1, Neprilysin (Rattus norvegicus, UniProt P07861)
T1 sequence (P07861 whole entry): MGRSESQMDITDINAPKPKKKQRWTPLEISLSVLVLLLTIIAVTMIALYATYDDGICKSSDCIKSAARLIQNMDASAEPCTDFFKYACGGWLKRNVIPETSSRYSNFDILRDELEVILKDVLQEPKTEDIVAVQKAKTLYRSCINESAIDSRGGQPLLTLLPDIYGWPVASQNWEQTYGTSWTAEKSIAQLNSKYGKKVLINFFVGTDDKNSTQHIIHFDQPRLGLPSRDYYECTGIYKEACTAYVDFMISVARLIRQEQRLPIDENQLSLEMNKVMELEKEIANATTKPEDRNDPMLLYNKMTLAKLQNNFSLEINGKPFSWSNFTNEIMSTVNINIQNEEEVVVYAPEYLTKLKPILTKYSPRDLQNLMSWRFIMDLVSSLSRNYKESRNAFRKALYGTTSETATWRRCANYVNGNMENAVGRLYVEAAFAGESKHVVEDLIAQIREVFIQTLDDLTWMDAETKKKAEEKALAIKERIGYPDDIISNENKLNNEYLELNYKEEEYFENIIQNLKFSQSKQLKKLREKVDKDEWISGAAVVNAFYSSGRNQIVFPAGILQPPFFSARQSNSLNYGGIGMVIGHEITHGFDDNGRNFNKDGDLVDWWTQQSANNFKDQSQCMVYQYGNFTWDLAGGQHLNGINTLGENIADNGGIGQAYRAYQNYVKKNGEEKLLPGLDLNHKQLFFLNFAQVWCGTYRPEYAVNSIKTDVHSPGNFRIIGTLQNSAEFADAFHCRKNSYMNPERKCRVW
Experiment: Inhibition of NEP 24.11 from rat kidney
Type: tissue-based

Row | Compound | IC50 [nM]
1 | O=C1NC(C(=O)N[C@H](CO)C(=O)O)CCCCCCC1CS (some centres not stated) | 11
2 | CS(=O)(=O)CCCNC(=O)C1CCCCCCC(CS)C(=O)N1 (configuration not stated) | 63
3 | O=C1NC(C(=O)NCCCO)CCCCCCC1CS (configuration not stated) | 209
4 | O=C1NC(C(=O)Nc2cccnc2)CCCCCCC1CS (configuration not stated) | 59
5 | NCCCC[C@@H](NC(=O)C1CCCCCCC(CS)C(=O)N1)C(=O)O (some centres not stated) | 14
6 | O=C1NC(C(=O)O)CCCCCCC1CS (single isomer, unassigned; (+)) | 3
7 | O=C1NC(C(=O)N2C[C@H](O)C[C@H]2C(=O)O)CCCCCCC1CS (single isomer, unassigned; (-)) | 0.8
8 | O=C1NC(C(=O)O)CCCCCCC1CS (single isomer, unassigned; (-)) | > 1000

The remaining compounds from weak to strong by IC50, led by results:

Row | IC50 [nM] | Compound
9 | 551 | O=C1NC(C(=O)Nc2ccccc2)CCCCCCC1CS (configuration not stated)
10 | 84 | O=C1NC(C(=O)NCCOCCO)CCCCCCC1CS (configuration not stated)
11 | 4 | O=C1NC(C(=O)O)CCCCCCC1CS (racemic)
12 | 2 | O=C1NC(C(=O)N2CCC[C@H]2C(=O)O)CCCCCCC1CS (some centres not stated)
